Key:
[1] = test system: MOLT-4 acute lymphoblastic leukemia cells; test: Cell viability, tetrazolium-based MTS assay, MOLT-4; details: Homo sapiens, MOLT-4, 48 h; read-out: Anti-Cancer Activity EC50 (48 hr), MOLT-4
Description: (§1) Acute lymphoblastic leukemia cells (MOLT-4 and RS4;11) were incubated with increasing concentrations of Bcl-xL/Bcl-2 degraders for 48 h. Cell viability was measured by tetrazolium-based MTS assay.

[2] = test system: WI-38 NC; test: Senolytic activity, cell viability (PrestoBlue HS), WI-38 NC; format: cell-based; details: Homo sapiens, 72 h
Description: (§2) WI-38 and HUVEC cells were incubated with increasing concentrations of degraders for 72 h. Cell viability was measured using PrestoBlue HS cell viability reagent.

[3] = test system: RS4;11 acute lymphoblastic leukemia cells; test: Cell viability, tetrazolium-based MTS assay, RS4;11; details: Homo sapiens, RS4;11, 48 h, read-out: Anti-Cancer Activity EC50 (48 hr), RS4
Description: as §1

[4] = test system: WI-38 irradiation-induced senescent cells (IR-SC); test: Senolytic activity, cell viability (PrestoBlue HS), WI-38 IR-SC; format: cell-based; details: Homo sapiens, 72 h
Description: (§3) To induce senescence in WI-38 and HUVEC, cells were subjected to x-ray irradiation at 20 Gray using X-RAD 320 biological irradiator. Following between 10 to 15 days after irradiation, senescence was induced in cells, and irradiation-induced senescent cells (IR-SC) were then used for cell viability and Western blotting tests.
as §2

[5] = test system: HUVEC irradiation-induced senescent cells (IR-SC); test: Senolytic activity, cell viability (PrestoBlue HS), HUVEC IR-SC; format: cell-based; details: Homo sapiens, 72 h
Description: as §3, §2

| EC50 [1] | EC50 [3] | SMILES | EC50 [2] | EC50 [4] | EC50 [5] |
| --- | --- | --- | --- | --- | --- |
| < 0.001 µM | < 0.001 µM | C[C@@]1(CN2CCN(C(=O)CN3CCC(CCN4CCN(c5ccc6c(c5)CN(C5CCC(=O)NC5=O)C6=O)CC4)CC3)CC2)CCC(c2ccc(Cl)cc2)=C(CN2CCN(c3ccc(C(=O)NS(=O)(=O)c4ccc(N[C@H](CCN5CCCOCC5)CSc5ccccc5)c(S(=O)(=O)C(F)(F)F)c4)cc3)CC2)C1 (stereo partly drawn) [Compound 10, N-((4-(((R)-4-(1,4-oxazepan-4-yl)-1-(phenylthio)butan-2-yl)amino)-3-((trifluoromethyl)sulfonyl)phenyl)sulfonyl)-4-(4-(((4R)-4′-chloro-4-((4-(2-(4-(2-(4-(2-(2,6-dioxopiperidin-3-yl)-1-oxoisoindolin-5-yl)piperazin-1-yl)ethyl)piperidin-1-yl)acetyl)piperazin-1-yl)methyl)-4-methyl-3,4,5,6-tetrahydro-[1,1′-biphenyl]-2-yl)methyl)piperazin-1-yl)benzamide] | > 10 µM | 0.01 to 0.1 µM |  |
| < 0.001 µM | < 0.001 µM | C[C@@]1(CN2CCC(CN3CCN(CC#Cc4ccc5c(c4)CN(C4CCC(=O)NC4=O)C5=O)CC3)CC2)CCC(c2ccc(Cl)cc2)=C(CN2CCN(c3ccc(C(=O)NS(=O)(=O)c4ccc(N[C@H](CCN5CCCOCC5)CSc5ccccc5)c(S(=O)(=O)C(F)(F)F)c4)cc3)CC2)C1 (stereo partly drawn) [Compound 13, N-((4-(((R)-4-(1,4-oxazepan-4-yl)-1-(phenylthio)butan-2-yl)amino)-3-((trifluoromethyl)sulfonyl)phenyl)sulfonyl)-4-(4-(((4R)-4′-chloro-4-((4-((4-(3-(2-(2,6-12 dioxopiperidin-3-yl)-1-oxoisoindolin-5-yl)prop-2-yn-1-yl)piperazin-1-yl)methyl)piperidin-1-yl)methyl)-4-methyl-3,4,5,6-tetrahydro-[1,1′-biphenyl]-2-yl)methyl)piperazin-1-14 yl)benzamide] | > 10 µM | 0.001 to 0.01 µM |  |
| < 0.001 µM | < 0.001 µM | CC1(CN2CCN(C(=O)CN3CCN(C(=O)CCCCNc4cccc5c4C(=O)N(C4CCC(=O)NC4=O)C5=O)CC3)CC2)CCC(c2ccc(Cl)cc2)=C(CN2CCN(c3ccc(C(=O)NS(=O)(=O)c4ccc(N[C@H](CCN5CCOCC5)CSc5ccccc5)c(S(=O)(=O)C(F)(F)F)c4)cc3)CC2)C1 (stereo partly drawn) [Compound 14, 4-(4-((4′-chloro-4-((4-(2-(4-(5-((2-(2,6-dioxopiperidin-3-yl)-1,3-dioxoisoindolin-4-yl)amino)pentanoyl)piperazin-1-yl)acetyl)piperazin-1-yl)methyl)-4-methyl-3,4,5,6-tetrahydro-[1,1′-biphenyl]-2-yl)methyl)piperazin-1-yl)-N-((4-(((R)-4-morpholino-1-(phenylthio)butan-2-yl)amino)-3-((trifluoromethyl)sulfonyl)phenyl)sulfonyl)benzamide] | > 10 µM | 10 to 100 µM |  |
| < 0.001 µM | < 0.001 µM | CC1(CN2CCN(C(=O)CN3CCN(C(=O)COCCNc4cccc5c4C(=O)N(C4CCC(=O)NC4=O)C5=O)CC3)CC2)CCC(c2ccc(Cl)cc2)=C(CN2CCN(c3ccc(C(=O)NS(=O)(=O)c4ccc(N[C@H](CCN5CCOCC5)CSc5ccccc5)c(S(=O)(=O)C(F)(F)F)c4)cc3)CC2)C1 (stereo partly drawn) [Compound 15, 4-(4-((4′-chloro-4-((4-(2-(4-(2-(2-((2-(2,6-dioxopiperidin-3-yl)-1,3-dioxoisoindolin-4-yl)amino)ethoxy)acetyl)piperazin-1-yl)acetyl)piperazin-1-yl)methyl)-4-methyl-3,4,5,6-tetrahydro-[1,1′-biphenyl]-2-yl)methyl)piperazin-1-yl)-N-((4-(((R)-4-morpholino-1-30 (phenylthio)butan-2-yl)amino)-3-((trifluoromethyl)sulfonyl)phenyl)sulfonyl)benzamide] | > 10 µM | 10 to 100 µM |  |
| < 0.001 µM | < 0.001 µM | CC1(CN2CCN(C(=O)CN3CCN(C(=O)CNc4cccc5c4C(=O)N(C4CCC(=O)NC4=O)C5=O)CC3)CC2)CCC(c2ccc(Cl)cc2)=C(CN2CCN(c3ccc(C(=O)NS(=O)(=O)c4ccc(N[C@H](CCN5CCOCC5)CSc5ccccc5)c(S(=O)(=O)C(F)(F)F)c4)cc3)CC2)C1 (stereo partly drawn) [Compound 16, 4-(4-((4′-chloro-4-((4-(2-(4-((2-(2,6-dioxopiperidin-3-yl)-1,3-dioxoisoindolin-4-yl)glycyl)piperazin-1-yl)acetyl)piperazin-1-yl)methyl)-4-methyl-3,4,5,6-tetrahydro-[1,1′-biphenyl]-2-yl)methyl)piperazin-1-yl)-N-((4-(((R)-4-morpholino-1-(phenylthio)butan-2-yl)amino)-3-((trifluoromethyl)sulfonyl)phenyl)sulfonyl)benzamide] | > 10 µM | 0.01 to 0.1 µM |  |
| < 0.001 µM | < 0.001 µM | CC1(CN2CCN(C(=O)CN3CCN(C(=O)COc4cccc5c4C(=O)N(C4CCC(=O)NC4=O)C5=O)CC3)CC2)CCC(c2ccc(Cl)cc2)=C(CN2CCN(c3ccc(C(=O)NS(=O)(=O)c4ccc(N[C@H](CCN5CCOCC5)CSc5ccccc5)c(S(=O)(=O)C(F)(F)F)c4)cc3)CC2)C1 (stereo partly drawn) [Compound 18, 4-(4-((4′-chloro-4-((4-(2-(4-(2-((2-(2,6-dioxopiperidin-3-yl)-1,3-dioxoisoindolin-4-yl)oxy)acetyl)piperazin-1-yl)acetyl)piperazin-1-yl)methyl)-4-methyl-3,4,5,6-tetrahydro-[1,1′-biphenyl]-2-yl)methyl)piperazin-1-yl)-N-((4-(((R)-4-morpholino-1-(phenylthio)butan-2-yl)amino)-3-((trifluoromethyl)sulfonyl)phenyl)sulfonyl)benzamide] | > 10 µM | 0.01 to 0.1 µM |  |
| < 0.001 µM | 0.001 to 0.01 µM | C[C@@]1(CN2CCN(c3ccc4c(c3)C(=O)N(C3CCC(=O)NC3=O)C4)CC2)CCC(c2ccc(Cl)cc2)=C(CN2CCN(c3ccc(C(=O)NS(=O)(=O)c4ccc(N[C@H](CCN5CCCOCC5)CSc5ccccc5)c(S(=O)(=O)C(F)(F)F)c4)cc3)CC2)C1 (stereo partly drawn) [Compound 133, N-((4-(((R)-4-(1,4-oxazepan-4-yl)-1-(phenylthio)butan-2-yl)amino)-3-((trifluoromethyl)sulfonyl)phenyl)sulfonyl)-4-(4-(((4R)-4′-chloro-4-((4-(2-(2,6-dioxopiperidin-3-yl)-3-oxoisoindolin-5-yl)piperazin-1-yl)methyl)-4-methyl-3,4,5,6-tetrahydro-[1,1′-biphenyl]-2-yl)methyl)piperazin-1-yl)benzamide] |  | 0.01 to 0.1 µM | < 0.001 µM |
| 0.001 to 0.01 µM | 0.001 to 0.01 µM | C[C@@]1(CN2CCC(CN3CCN(c4ccc(NC5CCC(=O)NC5=O)cc4F)CC3)CC2)CCC(c2ccc(Cl)cc2)=C(CN2CCN(c3ccc(C(=O)NS(=O)(=O)c4ccc(N[C@H](CCN5CCCOCC5)CSc5ccccc5)c(S(=O)(=O)C(F)(F)F)c4)cc3)CC2)C1 (stereo partly drawn) [Compound 141, N-((4-(((R)-4-(1,4-oxazepan-4-yl)-1-(phenylthio)butan-2-yl)amino)-3-((trifluoromethyl)sulfonyl)phenyl)sulfonyl)-4-(4-(((4R)-4′-chloro-4-((4-((4-(4-((2,6-dioxopiperidin-3-yl)amino)-2-fluorophenyl)piperazin-1-yl)methyl)piperidin-1-yl)methyl)-4-methyl-3,4,5,6-tetrahydro-[1,1′-biphenyl]-2-yl)methyl)piperazin-1-yl)benzamide] | > 10 µM | 0.001 to 0.01 µM | < 0.001 µM |

Reference: patent publication US20260355323A1, “CEREBLON-RECRUITING BCL-XL/BCL-2 DUAL DEGRADERS” (University of Florida Research Foundation, Incorporated, priority 2022, published 2026)
